# From PMC11995724, “Antibiotic target discovery by integrated phenotypic and activity-based profiling of electrophilic fragments” (Cell chemical biology, 2025)
# Assay: in vitro
# Conditions: human, hek293t cells
row,Compound,"viability at 48 h, 25 µM [%]"
1,"CSC1=C(C#N)C2(CCCCC2)C(C#N)=C(NC(=O)CCl)N1 [4-E10, 2-chloro-N-[1,5-dicyano-4-(methylsulfanyl)-3-azaspiro[5.5]undeca-1,4-dien-2-yl]acetamide]",0.534
2,"C=CC(=O)N(Cc1cn(CC)nc1C)C1CC1 [2-D13, N-cyclopropyl-N-[(1-ethyl-3-methyl-1H-pyrazol-4-yl)methyl]prop-2-enamide]",76.3
3,"CCn1cc(C2CN(C(=O)C(C)Cl)CCO2)cn1 (stereo not drawn) [7-G08, 2-chloro-1-[2-(1-ethyl-1H-pyrazol-4-yl)morpholin-4-yl]propan-1-one]",89.1
4,"CC(Cl)C(=O)Nc1ccc2ccccc2c1 (stereo not drawn) [5-H10, 2-chloro-N-(naphthalen-2-yl)propanamide]",90.7
5,"C=CC(=O)Nc1cc(C(C)C)ccc1C(C)C [1-I21, N-[2,5-bis(propan-2-yl)phenyl]prop-2-enamide]",101
6,"N#CC(=Cc1c2ccccc2cc2ccccc12)C(=O)NC1CCCCC1 [8-D14, 3-(anthracen-9-yl)-2-cyano-N-cyclohexylprop-2-enamide]",94.6
7,"CC(Cl)C(=O)N1Cc2ccccc2N(C)C[C@@H]1C (stereo partly drawn) [5-F15, 2-chloro-1-[(3S)-1,3-dimethyl-2,3,4,5-tetrahydro-1H-1,4-benzodiazepin-4-yl]propan-1-one]",108
8,"O=C(CCl)NC(c1cc(F)ccc1F)C(F)F (stereo not drawn) [7-F22, 2-chloro-N-[1-(2,5-difluorophenyl)-2,2-difluoroethyl]acetamide]",0.697
9,"COc1ccc(C(C)(C)C)cc1NC(=O)CCl [4-C07, N-(5-tert-butyl-2-methoxyphenyl)-2-chloroacetamide]",0.79
10,"N#CC(=Cc1ccccc1)C(=O)Nc1nncs1 [8-K09, 2-cyano-3-phenyl-N-(1,3,4-thiadiazol-2-yl)prop-2-enamide]",94.2
11,"CC(Cl)C(=O)c1ccc(F)c(F)c1 (stereo not drawn) [10-A17, 2-chloro-1-(3,4-difluorophenyl)propan-1-one]",66.4
12,"CC(C)N(Cc1ccccc1)C(=O)CCl [5-J20, N-benzyl-2-chloro-N-(propan-2-yl)acetamide]",1.21
13,"CCC(NC(=O)CCl)c1nc(C)n[nH]1 (stereo not drawn) [5-O14, 2-chloro-N-[1-(3-methyl-1H-1,2,4-triazol-5-yl)propyl]acetamide]",96.8
14,"O=C(CCl)N1CCOc2c1cccc2C(F)(F)F [5-G08, 2-chloro-1-[8-(trifluoromethyl)-3,4-dihydro-2H-1,4-benzoxazin-4-yl]ethan-1-one]",0.974
15,"N#CC(=Cc1ccc(-c2ccc(Cl)cc2)o1)C(=O)NC1CC1 [9-K16, 3-[5-(4-chlorophenyl)furan-2-yl]-2-cyano-N-cyclopropylprop-2-enamide]",91
16,"Cc1ccc(NC(=O)C(C#N)=Cc2cccc(Cl)c2Cl)cc1 [8-D06, 2-cyano-3-(2,3-dichlorophenyl)-N-(4-methylphenyl)prop-2-enamide]",69.5
17,"N#CC(=Cc1ccc(OC(F)F)cc1)C(=O)N1CCCc2ccccc21 [8-E03, 3-[4-(difluoromethoxy)phenyl]-2-(1,2,3,4-tetrahydroquinoline-1-carbonyl)prop-2-enenitrile]",64.6
18,"Cc1ccc(C(NC(=O)CCl)c2cccs2)cc1 (stereo not drawn) [4-H16, 2-chloro-N-[(4-methylphenyl)(thiophen-2-yl)methyl]acetamide]",0.348
19,"COc1cccc(NC(=O)C(C#N)=Cc2csnn2)c1 [8-K04, 2-cyano-N-(3-methoxyphenyl)-3-(1,2,3-thiadiazol-4-yl)prop-2-enamide]",80.5
20,"Cc1ccc(C2=NN(C(=O)CCl)C(c3cccs3)C2)o1 (stereo not drawn) [5-I17, 2-chloro-1-[3-(5-methylfuran-2-yl)-5-(thiophen-2-yl)-4,5-dihydro-1H-pyrazol-1-yl]ethan-1-one]",0.348
21,"O=C(CCl)NCC1CCCN(C(=O)C(F)(F)F)C1 (stereo not drawn) [7-N18, 2-chloro-N-{[1-(2,2,2-trifluoroacetyl)piperidin-3-yl]methyl}acetamide]",0.898
22,"CSc1cc(C(=O)CCl)ccc1NC(C)=O [10-H08, N-[4-(2-chloroacetyl)-2-(methylsulfanyl)phenyl]acetamide]",8.39
23,"CC(Cl)C(=O)Nc1cccnc1Cl (stereo not drawn) [6-C17, 2-chloro-N-(2-chloropyridin-3-yl)propanamide]",106
24,"C=CC(=O)N(C)CC(=O)NC(C)c1ncc(C)s1 (stereo not drawn) [3-I14, N-methyl-N-({[1-(5-methyl-1,3-thiazol-2-yl)ethyl]carbamoyl}methyl)prop-2-enamide]",69.4
25,"CN(C1CCCCC1)S(=O)(=O)c1ccccc1NC(=O)CCl [5-N10, 2-chloro-N-{2-[cyclohexyl(methyl)sulfamoyl]phenyl}acetamide]",0.725
26,"Cn1ccnc1C(=O)CCl [10-C15, 2-chloro-1-(1-methyl-1H-imidazol-2-yl)ethan-1-one]",67.6
27,"C=CC(=O)N(C)c1ccccc1C(=O)NC [2-O18, N-methyl-2-(N-methylprop-2-enamido)benzamide]",114

row,Compound,"viability at 48 h, 25 µM [%]"
1,"C=CC(=O)N1CCCC(Oc2ccnc(C(=O)NC)c2)C1 (stereo not drawn) [2-L22, N-methyl-4-{[1-(prop-2-enoyl)piperidin-3-yl]oxy}pyridine-2-carboxamide]",99.6
2,"N#C/C(C(=O)Nc1ccc(C(F)(F)F)cc1)=C(/O)C1CC1 [9-N22, (2Z)-2-cyano-3-cyclopropyl-3-hydroxy-N-[4-(trifluoromethyl)phenyl]prop-2-enamide]",82.6
3,"C=CC(=O)Nc1cccc(-c2nc(COC)no2)c1C [1-J08, N-{3-[3-(methoxymethyl)-1,2,4-oxadiazol-5-yl]-2-methylphenyl}prop-2-enamide]",79
4,"CC(Cl)C(=O)Nc1cc(F)ccc1F (stereo not drawn) [6-A09, 2-chloro-N-(2,5-difluorophenyl)propanamide]",96
5,"O=C(CCl)NCc1cn[nH]c1C(F)F [7-D05, 2-chloro-N-{[5-(difluoromethyl)-1H-pyrazol-4-yl]methyl}acetamide]",0.404
6,"CC(Cl)C(=O)Nc1ccccc1[N+](=O)[O-] (stereo not drawn) [4-G18, 2-chloro-N-(2-nitrophenyl)propanamide]",103
7,"C=CC(=O)Nc1ccnc(OC2CCCCC2)c1 [2-A04, N-[2-(cyclohexyloxy)pyridin-4-yl]prop-2-enamide]",0.76
8,"O=C(O)c1coc(C(=O)CCl)c1 [10-B07, 5-(2-chloroacetyl)furan-3-carboxylic acid]",107
9,"C=CC(=O)NC(C)c1nnc(-c2ccccc2F)s1 (stereo not drawn) [3-N13, N-{1-[5-(2-fluorophenyl)-1,3,4-thiadiazol-2-yl]ethyl}prop-2-enamide]",76
10,"Cc1cc(C(=O)CCl)c(C)n1-c1ccc2c(c1)OCO2 [10-K14, 1-[1-(1,3-dioxaindan-5-yl)-2,5-dimethyl-1H-pyrrol-3-yl]-2-chloroethan-1-one]",22.4
11,"N#CC(=CC(Cl)=Cc1ccccc1)C(=O)NC1CCCCC1 [8-D17, 4-chloro-2-cyano-N-cyclohexyl-5-phenylpenta-2,4-dienamide]",7.44
12,"C=CC(=O)NCc1nnc(C(F)(F)F)s1 [1-O14, N-{[5-(trifluoromethyl)-1,3,4-thiadiazol-2-yl]methyl}prop-2-enamide]",131
13,"CC(Cl)C(=O)c1ccc2c(c1)NC(=O)CO2 (stereo not drawn) [10-P12, 6-(2-chloropropanoyl)-3,4-dihydro-2H-1,4-benzoxazin-3-one]",105
14,"CCC(=O)N1CCc2cc(C(=O)CCl)ccc21 [10-C22, 1-[5-(2-chloroacetyl)-2,3-dihydro-1H-indol-1-yl]propan-1-one]",90.5
15,"C=CC(=O)Nc1ccc2nc(O)n(C3CC3)c2c1 [2-K16, N-(1-cyclopropyl-2-hydroxy-1H-1,3-benzodiazol-6-yl)prop-2-enamide]",83.3
16,"CC(Cl)C(=O)NCc1cccc(Cn2cnc3ccccc32)c1 (stereo not drawn) [6-O16, N-({3-[(1H-1,3-benzodiazol-1-yl)methyl]phenyl}methyl)-2-chloropropanamide]",116
17,"Cc1cc(CN(C(=O)CCl)C2CCCC2)c2ccccc2n1 [7-B20, 2-chloro-N-cyclopentyl-N-[(2-methylquinolin-4-yl)methyl]acetamide]",0.493
18,"C=CC(=O)NCCC1COCCO1 (stereo not drawn) [2-H15, N-[2-(1,4-dioxan-2-yl)ethyl]prop-2-enamide]",74.3
19,"C=CC(=O)NC1(Cn2cccn2)CC(F)(F)C1 [2-J17, N-{3,3-difluoro-1-[(1H-pyrazol-1-yl)methyl]cyclobutyl}prop-2-enamide]",54.5
20,"C=CC(=O)NC(C)c1ccc(S(=O)(=O)N(C)C)cc1 (stereo not drawn) [3-A20, N-{1-[4-(dimethylsulfamoyl)phenyl]ethyl}prop-2-enamide]",51.5
21,"Cc1cc(C(=O)CCl)c(C)n1C1CCS(=O)(=O)C1 (stereo not drawn) [10-B12, 3-[3-(2-chloroacetyl)-2,5-dimethyl-1H-pyrrol-1-yl]-1lambda6-thiolane-1,1-dione]",3.75
22,"CCOc1ccccc1NC(=O)C(C#N)=Cc1ccc2c(c1)OCO2 [9-P05, 3-(1,3-dioxaindan-5-yl)-2-cyano-N-(2-ethoxyphenyl)prop-2-enamide]",136
23,"Cn1c(=O)c(C(=O)CCl)c(N)n(Cc2ccccc2)c1=O [10-L15, 6-amino-1-benzyl-5-(2-chloroacetyl)-3-methyl-1,2,3,4-tetrahydropyrimidine-2,4-dione]",76.7
24,"CC(Cl)C(=O)N1CCN(c2nccc3sccc23)CC1 (stereo not drawn) [7-G10, 2-chloro-1-(4-{thieno[3,2-c]pyridin-4-yl}piperazin-1-yl)propan-1-one]",83.5
25,"Cc1cc(C(=O)CCl)c(C)[nH]1 [10-J08, 2-chloro-1-(2,5-dimethyl-1H-pyrrol-3-yl)ethan-1-one]",1.07
26,"COc1ccc(C=C(C#N)C(=O)Nc2ccccc2[N+](=O)[O-])cc1 [8-G03, 2-cyano-3-(4-methoxyphenyl)-N-(2-nitrophenyl)prop-2-enamide]",96.8
27,"C=CCNC(=O)C(C#N)=Cc1cccc(C(F)(F)F)c1 [8-L09, 2-cyano-N-(prop-2-en-1-yl)-3-[3-(trifluoromethyl)phenyl]prop-2-enamide]",96.8
